According to patent publication US9926297B2, “Bicyclic AZA compounds as muscarinic M1 receptor and/or M4 receptor agonists” (Heptares Therapeutics Limited, priority 2014, dated 2018):
Read-outs that look alike come from different tables or passages of the source.

Experiments:
[1] = biological target: T1, human muscarinic M1 receptor (Homo sapiens, UniProt P11229); assay: Alphascreen Surefire phospho-ERK1/2 functional assay, M1; format: cell-based; settings: for EC50: CHO cells stably expressing human M1, phospho-ERK1/2, * = variable results, read-out: pEC50 M1 (converted); for Emax: CHO
T1 sequence (P11229 1-460): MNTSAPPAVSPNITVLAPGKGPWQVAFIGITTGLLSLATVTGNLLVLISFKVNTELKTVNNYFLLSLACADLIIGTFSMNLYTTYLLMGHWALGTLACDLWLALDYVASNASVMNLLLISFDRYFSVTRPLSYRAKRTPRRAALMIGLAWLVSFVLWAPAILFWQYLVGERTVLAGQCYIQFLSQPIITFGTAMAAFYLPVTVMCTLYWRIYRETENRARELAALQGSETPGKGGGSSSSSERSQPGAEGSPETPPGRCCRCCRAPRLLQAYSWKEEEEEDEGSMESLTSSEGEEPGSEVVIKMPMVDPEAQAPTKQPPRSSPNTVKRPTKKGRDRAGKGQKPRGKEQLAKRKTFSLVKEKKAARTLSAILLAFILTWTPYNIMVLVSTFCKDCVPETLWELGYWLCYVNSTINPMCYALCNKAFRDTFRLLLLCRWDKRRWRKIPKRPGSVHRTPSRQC

[2] = biological target: T2, human muscarinic M4 receptor (Homo sapiens, UniProt P08173); assay: Alphascreen Surefire phospho-ERK1/2 functional assay, M4; format: cell-based; settings: for EC50: CHO cells stably expressing human M4, phospho-ERK1/2, * = variable results, read-out: pEC50 M4 (converted); for Emax: CHO
T2 construct: expressed in transfected cells
T2 sequence (P08173 1-479): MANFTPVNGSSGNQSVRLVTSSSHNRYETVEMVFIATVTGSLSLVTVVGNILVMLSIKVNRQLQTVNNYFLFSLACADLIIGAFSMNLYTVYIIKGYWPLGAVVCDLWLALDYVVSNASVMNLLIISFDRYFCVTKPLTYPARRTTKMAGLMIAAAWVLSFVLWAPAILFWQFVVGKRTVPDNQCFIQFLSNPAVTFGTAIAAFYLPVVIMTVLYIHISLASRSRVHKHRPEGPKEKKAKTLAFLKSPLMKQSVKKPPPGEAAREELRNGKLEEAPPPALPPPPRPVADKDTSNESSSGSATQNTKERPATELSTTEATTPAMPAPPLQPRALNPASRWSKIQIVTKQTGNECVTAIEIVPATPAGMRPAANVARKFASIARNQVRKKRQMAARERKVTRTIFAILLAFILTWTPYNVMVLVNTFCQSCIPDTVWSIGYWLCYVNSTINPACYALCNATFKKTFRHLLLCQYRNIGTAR

[3] = read-out: % Emax cf. ACh, M1, CHO cells stably expressing human M1, relative to ACh
[4] = read-out: % Emax cf. ACh, M4, CHO cells stably expressing human M4, relative to ACh

Row | Structure (SMILES) | EC50 [1] | EC50 [2] | Emax [1, 3] | Emax [2, 4] | Emax ([1]; read-out: % Emax cf. ACh, M1) | Emax ([2]; read-out: % Emax cf. ACh, M4)
1 | CCOC(=O)N1CCC2(CC(N3CCC(C)(c4nc(C)no4)CC3)C2)C1 (single isomer, unassigned) [1-41 Isomer 2, ethyl 2-[4-methyl-4-(3-methyl-1,2,4-oxadiazol-5-yl)piperidin-1-yl]-6-azaspiro[3.4]octane-6-carboxylate] | 1000 nM | 251 nM |  |  | 52% | 35%
2 | CCn1nccc1C1CCN(C2CC3(CCN(C(=O)OC)C3)C2)CC1 (single isomer, unassigned) [1-46 Isomer 2, methyl 2-[4-(1-ethyl-1H-pyrazol-5-yl)piperidin-1-yl]-6-azaspiro[3.4]octane-6-carboxylate] | > 20000 nM | 200 nM | 35% | 63% |  | 
3 | CCCn1nccc1C1CCN(C2CC3(CCN(C(=O)OC)C3)C2)CC1 (single isomer, unassigned) [1-48 Isomer 2, methyl 2-[4-(1-propyl-1H-pyrazol-5-yl)piperidin-1-yl]-6-azaspiro[3.4]octane-6-carboxylate] | > 20000 nM | 631 nM | 63% | 68% |  | 
4 | CCOC(=O)N1CCC2(CC(N3CCC(c4nccn4CCOC)CC3)C2)C1 (single isomer, unassigned) [1-51 Isomer 2, ethyl 2-{4-[1-(2-methoxyethyl)-1H-imidazol-2-yl]piperidin-1-yl}-6-azaspiro[3.4]octane-6-carboxylate] | 1260 nM | 158 nM | 74% | 106% |  | 
5 | CCOC(=O)N1CCC2(CC(N3CCC(c4nccn4CC(=O)O)CC3)C2)C1 (single isomer, unassigned) [1-53 Isomer 2, (2-{1-[6-(ethoxycarbonyl)-6-azaspiro[3.4]oct-2-yl]piperidin-4-yl}-1H-imidazol-1-yl)acetic acid] | 5010 nM | 1260 nM | 38% | 80% |  | 
6 | CCOC(=O)N1CCC2(CC(N3CCC(c4nccn4CC(=O)NC)CC3)C2)C1 (single isomer, unassigned) [1-54 Isomer 2, ethyl 2-(4-{1-[2-(methylamino)-2-oxoethyl]-1H-imidazol-2-yl}piperidin-1-yl)-6-azaspiro[3.4]octane-6-carboxylate] | > 20000 nM | 794 nM | 51% | 74% |  | 
7 | COC(=O)N1CCC2(CC(N3CCC(c4nn(C)cc4C)CC3)C2)C1 (single isomer, unassigned) [1-55 Isomer 2, methyl 2-[4-(1,4-dimethyl-1H-pyrazol-3-yl)piperidin-1-yl]-6-azaspiro[3.4]octane-6-carboxylate] | 5010 nM | 501 nM | 40% | 64% |  | 
8 | CCOC(=O)N1CCC2(CC(N3CCC(c4c(C)cnn4CC)CC3)C2)C1 (single isomer, unassigned) [1-59 Isomer 2, ethyl 2-[4-(1-ethyl-4-methyl-1H-pyrazol-5-yl)piperidin-1-yl]-6-azaspiro[3.4]octane-6-carboxylate] | 398 nM | 100 nM | 38% | 76% |  | 
9 | CCOC(=O)N1CCC2(CC(N3CCC(c4c(CC)cnn4C)CC3)C2)C1 (single isomer, unassigned) [1-60 Isomer 2, ethyl 2-[4-(4-ethyl-1-methyl-1H-pyrazol-5-yl)piperidin-1-yl]-6-azaspiro[3.4]octane-6-carboxylate] | 316 nM | 39.8 nM | 82% | 88% |  | 
10 | CCOC(=O)N1CCC2(CC(N3CCC(n4cnnn4)CC3)C2)C1 (single isomer, unassigned) [1-62 Isomer 2, ethyl 2-[4-(1H-tetrazol-1-yl)piperidin-1-yl]-6-azaspiro[3.4]octane-6-carboxylate] | 1260 nM | > 20000 nM | 73% | 10% |  | 
11 | CCOC(=O)N1CCC2(CC(N3CCC(n4nnnc4C)CC3)C2)C1 (single isomer, unassigned) [1-63 Isomer 2, ethyl 2-[4-(5-methyl-1H-tetrazol-1-yl)piperidin-1-yl]-6-azaspiro[3.4]octane-6-carboxylate] | > 20000 nM | 1000 nM | 82% | 24% |  | 
12 | CCOC(=O)N1CCC2(CC(N3CCC(c4nnnn4C)CC3)C2)C1 (single isomer, unassigned) [1-64 Isomer 2, ethyl 2-[4-(1-methyl-1H-tetrazol-5-yl)piperidin-1-yl]-6-azaspiro[3.4]octane-6-carboxylate] | 5010 nM | 316 nM | 40% | 78% |  | 

Second part, led by results:

Row | EC50 [1] | EC50 [2] | Emax [1, 3] | Emax [2, 4] | Structure (SMILES) | Emax ([1]; read-out: % Emax cf. ACh, M1) | Emax ([2]; read-out: % Emax cf. ACh, M4)
13 | > 20000 nM | 251 nM | 60% | 73% | CCOC(=O)N1CCC2(CC(N3CCC(c4nnnn4CC)CC3)C2)C1 (single isomer, unassigned) [1-65 Isomer 2, ethyl 2-[4-(1-ethyl-1H-tetrazol-5-yl)piperidin-1-yl]-6-azaspiro[3.4]octane-6-carboxylate] |  | 
14 | > 20000 nM | 251 nM | 14% | 32% | CCOC(=O)N1CCC2(CC(N3CCC(c4nnn(CC)n4)CC3)C2)C1 (single isomer, unassigned) [1-66 Isomer 2, ethyl 2-[4-(2-ethyl-2H-tetrazol-5-yl)piperidin-1-yl]-6-azaspiro[3.4]octane-6-carboxylate] |  | 
15 | 3160 nM | 316 nM | 37% | 75% | CCOC(=O)N1CCC2(CC(N3CCC(c4nnnn4C4CC4)CC3)C2)C1 (single isomer, unassigned) [1-67 Isomer 2, ethyl 2-[4-(1-cyclopropyl-1H-tetrazol-5-yl)piperidin-1-yl]-6-azaspiro[3.4]octane-6-carboxylate] |  | 
16 | 79.4 nM | 6.31 nM | 91% | 98% | [2H]C([2H])(C)OC(=O)N1CCC2(CC(N3CCC(n4cccn4)CC3)C2)C1 (single isomer, unassigned) [1-68 Isomer 2, (1,1-^2H2)ethyl 2-[4-(1H-pyrazol-1-yl)piperidin-1-yl]-6-azaspiro[3.4]octane-6-carboxylate] |  | 
17 | 79.4 nM | 5.01 nM | 99% | 104% | [2H]C([2H])([2H])COC(=O)N1CCC2(CC(N3CCC(n4cccn4)CC3)C2)C1 (single isomer, unassigned) [1-69 Isomer 2, (2,2,2-^2H3)ethyl 2-[4-(1H-pyrazol-1-yl)piperidin-1-yl]-6-azaspiro[3.4]octane-6-carboxylate] |  | 
18 | 79.4 nM | 5.01 nM | 92% | 101% | [2H]C([2H])([2H])C([2H])([2H])OC(=O)N1CCC2(CC(N3CCC(n4cccn4)CC3)C2)C1 (single isomer, unassigned) [1-70 Isomer 2, (^2H5)ethyl 2-[4-(1H-pyrazol-1-yl)piperidin-1-yl]-6-azaspiro[3.4]octane-6-carboxylate] |  | 
19 | > 20000 nM | 100 nM | 6% | 69% | [2H]C([2H])(C)OC(=O)N1CCC2(CC(N3CCC(c4ccnn4C)CC3)C2)C1 (single isomer, unassigned) [1-71 Isomer 2, (1,1-^2H2)ethyl 2-[4-(1-methyl-1H-pyrazol-5-yl)piperidin-1-yl]-6-azaspiro[3.4]octane-6-carboxylate] |  | 
20 | > 20000 nM | 158 nM | 17% | 69% | [2H]C([2H])([2H])COC(=O)N1CCC2(CC(N3CCC(c4ccnn4C)CC3)C2)C1 (single isomer, unassigned) [1-72 Isomer 2, (2,2,2-^2H3)ethyl 2-[4-(1-methyl-1H-pyrazol-5-yl)piperidin-1-yl]-6-azaspiro[3.4]octane-6-carboxylate] |  | 
21 | > 20000 nM | 126 nM | 11% | 72% | [2H]C([2H])([2H])C([2H])([2H])OC(=O)N1CCC2(CC(N3CCC(c4ccnn4C)CC3)C2)C1 (single isomer, unassigned) [1-73 Isomer 2, (^2H5)ethyl 2-[4-(1-methyl-1H-pyrazol-5-yl)piperidin-1-yl]-6-azaspiro[3.4]octane-6-carboxylate] |  | 
22 | 6310 nM | 158 nM | 34% | 66% | CCC(=O)N1CCCC1C1CCN(C2CC3(CCN(C(=O)OC)C3)C2)CC1 (single isomer, unassigned) [2-5 Isomer 2, methyl 2-[4-(1-propanoylpyrrolidin-2-yl)piperidin-1-yl]-6-azaspiro[3.4]octane-6-carboxylate] |  | 
